System: acyl ghrelin secretion from INS-1 cells (INS/GOAT/GHRL cell line)
Assay: INS-1 cellular assay: secreted acyl-ghrelin from INS/GOAT/GHRL cell line measured with ELISA
Type: cell-based, mouse
Conditions: for IC50: INS1, acyl-ghrelin secretion, read-out: in-house INS-1 IC50; for activity in cell culture (in words): acyl ghrelin secretion
From the text: Generation of Recombinant Retrovirus for mGOAT Expression. The mouse GOAT cDNA with C-terminal HA tag was amplified from pcDNA3.1-mouseGOAT-HA vector (gift from Brown and Goldstein lab) using the following primers: mGOAT_attb1 (forward primer) 5′-[…]—3′(attb1 recombination site is in italics, 5′ of mGOAT coding sequence is in bold, and Kozak coding sequence is underlined) and mGOAT_attb2 (reverse primer) 5′-[…] -3′ (attb2 recombination site is in italics, 3′ of mGAOT-HA coding sequence is in bold, and stop codon is underlined). The PCR product was cloned into donor vector pDONR221 (ThermoFisher) with BP clonase according to manufacturer’s instructions. Positive clones were verified by DNA sequencing with M13F and M13R primers. The resulting entry plasmid pDONR221-mGOAT-HA was used to transfer mGOAT-HA cDNA to destination vector pBabe-puro (Addgene cat# 51070 [35]) using LR clonase according to manufacturer’s instructions. Positive clones were verified by DNA sequencing with pBABE-5 and pBABE-3 primers. The resulting plasmid, pBabe-puro-mGOAT-HA, was used to generate retrovirus. The retrovirus was packed in 293T PhoE (Phoenix-ECO AT0CC® CRL-3214™) cells and used to infect INS-1 cells. The stable INS/GOAT cells were selecting on 1 μg/mL puromycin and GOAT expression was confirmed with immunoblot of membrane fraction isolated from antibiotic resistant culture using anti-HA antibody.
Generation of Lentivirus for Expression of Ghrelin. The cDNA for mouse preproghrelin was subcloned from pcDNA3.1-preproghrelin (gift from Brown and Goldstein lab) into pULTRA vector (Addgene cat# 24129 [36]) with XbaI and BamHI restriction enzymes. Using of these restriction sites for cloning will result in the creation of bi-cistronic expression of ghrelin along with EGFP to facilitate identification of positive cells by fluorescence. The above restriction sites were engineered via PCR reaction using the following primers: ghrl_pultra_forw 5′-[…]-3′ (5′ of preproghrelin coding sequence is in bold; XbaI site is in italics) and ghrl_pultra_rev 5′-[…] -3′ (3′ of preproghrelin coding sequence is in bold, stop codon is underlined, and BamHI site is italics). The recombinant lentivirus encoding preproghrelin cDNA was packed in Lenti-X 293T cells (Takara cat# 632180) by co-transfection of pUltra-EGFP-mouse-preproghrelin, with packaging encoding plasmid pCMV ΔR8.2 (Addgene cat# 12263) and envelope encoding plasmid pCMV-VSV g (Addgene cat# 8454). The INS/GOAT cells were infected with recombinant lentivirus to generate INS/GOAT/GHRL cell line. After few passages, the population of cells with puromycin resistance and ~90% fluorescence was saved for cell-based assay.
Cellular assay. INS/GOAT/GHRL cell line was routinely cultured in RPMI medium supplemented with 10% FBS, 1% Pen/Strep, 10 mM HEPES pH 7.2 and 50 μM 2-mercaptoethanol. Day 0: One 10 cm dish at full confluency was used to seed one 96-well plate. Day 1: Growth media was removed and cells were washed with PBS prior to adding fresh growth media as above but without 2-mercaptoethanol. The serial dilutions of tested compound at 50× concentration were prepared in vehicle containing growth media without 2-mercaptoethnol supplemented with 6% DMSO and were added to cells in duplicates. Day 2: 10 μL of growth media were removed from each well and amount of secreted acyl-ghrelin was measured with ELISA (Cayman cat# 10006307).

| IC50 [µM] | Compound | activity in cell culture (in words) | potency of blocking ghrelin secretion from INS-1 cells relative to 5 [fold] |
| --- | --- | --- | --- |
| 0.67 | Cc1nc(Cl)nc(N)c1CCC1CCN(C(=O)[C@H](C)NC(=O)c2ccnn2C)CC1 [compound 5] |  |  |
| 0.54 | CNC(=O)c1cccc(Cc2c(C)nc3nonc3c2N)n1 [compound 6, reference compound] |  |  |
| 0.16 | Cc1nc2nonc2c(N)c1CCC1CCN(C(=O)[C@H](C)NC(=O)c2ccnn2C)CC1 [compound 11, (S)-N-(1-(4-(2-(7-amino-5-methyl-[1,2,5]oxadiazolo[3,4-b]pyridin-6-yl)ethyl)pip-eridin-1-yl)-1-oxopropan-2-yl)-1-methyl-1H-pyrazole-5-carboxamide] | most potent compound we have tested in our cellular assay | 4 |

| Compound | IC50 [µM] | activity in cell culture (in words) | potency of blocking ghrelin secretion from INS-1 cells relative to 5 [fold] |
| --- | --- | --- | --- |
| CCCCOCC(=O)N1CCC(CCc2c(C)nc3nonc3c2N)CC1 [compound 10, 1-(4-(2-(7-amino-5-methyl-[1,2,5]oxadiazolo[3,4-b]pyridin-6-yl)ethyl)piperidin-1-yl)-2-butoxyethan-1-one] | > 6.6 | much less active in cells |  |

From article PMC8709388, “In Search of Small Molecules That Selectively Inhibit MBOAT4” (Molecules, 2021)
